# From US9198879B2, “Pharmacologically optimized multimodal drug delivery system for nordihydroguiaretic acid (NDGA)” (Napo Pharmaceuticals, Inc., priority 2011, dated 2015)
# Experiments:
# Fat/STZ rats = experiment: Fat/STZ rat model, oral NDGA in CMC, PEG or Gelucire vehicles: glucose, triglycerides, FFA; format: in vivo; settings: for glucose: versus 366+/−32; for glucose levels: 250 mg/kg twice daily
# Method: In these studies, a variety of rodent models were used to evaluate the glucose-lowering properties and its effects on lipids, such as lowering of triglycerides. NDGA was administered orally to animals over a wide range of doses (10 to 350) mg/kg.
# In this experiment, NDGA was dissolved in the following: • CMC: 0.25% carboxymethylcellulose • Gelucire: “Gelucire 44/14 (Gatefosse, Wildwood, N.J.; a well-defined mixture of mono-, di-, and tri-glycerides and mono- and di-fatty acid esters of polyethylene glycol) • PEG: 85% polyethylenene glycol, 10% tween and 5% propanediol
# (§1) In this study, the following animal models where used: • Db/db mice: homozygous mice are a model of obesity, diabetes and dyslipedemia where their leptin receptor activity is deficient. • Ob/ob mice: obese mice with diabetes. • Db/lean mice: heterozygous mice that are not diabetic. • Fat/STZ rats: non-genetically diabetic overweight rats that are fed diets enriched in fat and made hyperglycemic by chemically removing their pancreatic function to reduce insulin production by treating them with streptozotocin (STZ). • Fructose/STZ rats: non-diabetic rats that are fed diets enriched in fructose and made hyperglycemic by treating them with STZ. • ZDF rats: obese and hyperglycemic rats with other metabolic disorders.
# (§2) Baseline glucose and triglyceride concentrations, where appropriate, were measured for both diabetic and normal animals.
# fat/STZ rat [1] = experiment: Basal hepatic glucose production by intravenous infusion of radiolabeled glucose; format: in vivo; settings: no insulin infused, p<0.05
# Method: (§3) Studies were also conducted to determine the mechanism by which NDGA lowers glucose. To do so, NDGA was administered to determine the effects of NDGA on insulin-stimulated glucose disposition and on basal hepatic glucose production using the high fat diet fed/streptozotocin (STZ) rat model of NIDDM. Whole-body insulin-stimulated glucose disposition was measured using a constant intravenous glucose/insulin infusion, in which the steady-state plasma insulin concentration (SSPI) is held constant and the steady-state plasma glucose concentration (SSPG) is a measure of net glucose clearance. […] In these same studies basal hepatic glucose production was measured using an intravenous infusion of radiolabeled glucose (no insulin was infused).
# (§4) Studies were conducted to determine the effects of NDGA (masoprocol) on insulin-stimulated glucose disposition and on basal hepatic glucose production using the fat/STZ rat. Whole-body insulin-stimulated glucose disposition was measured using a constant intravenous glucose/insulin infusion, in which the steady-state plasma insulin concentration (SSPI) is held constant and the steady-state plasma glucose concentration (SSPG) is a measure of net glucose clearance.
# fat/STZ rat [2] = experiment: Whole-body insulin-stimulated glucose disposition (SSPG) with constant intravenous glucose/insulin infusion; format: in vivo; settings: steady-state plasma insulin held constant
# Method: as §3, §4
# Fructose/STZ rats = experiment: Triglyceride and FFA lowering in Fructose/STZ rats; format: in vivo, rat; settings: fructose-fed/STZ rats
# Excerpt: as §1
# (§5) These reductions in free fatty acid concentration could result from either decreased production (by reduced lipolysis) or increased removal of free fatty acids from the circulation by liver, fat or muscle.
# [3] = tested on: fructose-fed hypertriglyceridemic rats; experiment: Fructose-fed hypertriglyceridemic rat model; format: in vivo
# Excerpt: It is likely that the triglyceride-lowering effect of NDGA may also be explained, at least in part, by the suppression of free fatty acid (FFA) release. Free fatty acids in the circulation can enter the liver and can be re-assembled into triglycerides by the process of re-esterification. […] It should be noted that other mechanisms for reducing triglycerides, such as increased triglyceride clearance, are not ruled out by these findings.
# as §5
# cecum = settings: in vivo; cited from earlier work
# rat adipocytes = settings: cited from earlier work
# ZDF rats = experiment: Glucose and triglyceride lowering in ZDF rats; format: in vivo, rat
# Excerpt: as §1, §2
structure (smiles),measurement,setting,value
"CC(Cc1ccc(O)c(O)c1)C(C)Cc1ccc(O)c(O)c1 (stereo not drawn) [NDGA, nordihydroguaiaretic acid]",triglyceride levels,"Fat/STZ rats; Fat/STZ rat, 40 mg/Kg once daily (QD), CMC delivery vehicle, 327 +/−25 without NDGA, no significant lowering",270 ± 26 mg/dL
same,triglyceride levels,"Fat/STZ rats; Fat/STZ rat, 40 mg/kg QD, Gelucire delivery vehicle, 674+/−84 without NDGA, significant lowering",312 ± 38 mg/dL
same,glucose,"Fat/STZ rats; Fat/STZ rat, 40 mg/kg QD, Gelucire vehicle",299 ± 25 mg/dL
same,glucose,"Fat/STZ rats; Fat/STZ rat, 250 mg/kg QD, Gelucire vehicle",325 ± 26 mg/dL
same,triglyceride,"Fat/STZ rats; Fat/STZ rat, 250 mg/kg QD, Gelucire vehicle, versus 674+/−84",249 ± 42 mg/dL
same,glucose levels,"Fat/STZ rats; Fat/STZ rat, Gelucire vehicle, 497+/−22 without NDGA, significant lowering",380+/−28
same,glucose levels,"Fat/STZ rats; Fat/STZ rat, PEG delivery vehicle, 393+/−20 without NDGA, no significant lowering",364+/−20
same,glucose lowering,"Fat/STZ rats; Fat/STZ rats, given orally",significantly lowers glucose
same,free fatty acid (FFA) concentrations,Fat/STZ rats; fat-fed/STZ rats,decreases free fatty acid (FFA) concentrations
same,plasma triglyceride lowering,Fat/STZ rats; fat-fed/STZ rats,significantly and dramatically lowered plasma triglycerides
same,glucose lowering,"Fat/STZ rats; fat/STZ rat, single daily dose of 150 mg/kg",ineffective in lowering glucose
same,hourly hepatic glucose production compared to vehicle,fat/STZ rat [1],significantly reduced hourly hepatic glucose production
same,reduction of steady-state plasma glucose concentration (SSPG) versus vehicle control group,fat/STZ rat [2]; p<0.05,approximately 30%
same,reduction of steady-state plasma glucose concentration (SSPG) versus vehicle control group,"fat/STZ rat [2]; p<0.05, listed as Masoprocol",30%
same,free fatty acid (FFA) concentrations,Fructose/STZ rats,decreases free fatty acid (FFA) concentrations
same,plasma triglyceride lowering,Fructose/STZ rats,significantly and dramatically lowered plasma triglycerides
same,free fatty acid (FFA) concentrations,[3]; fructose-fed hypertriglyceridemic rats,decreases free fatty acid (FFA) concentrations
same,glucose lowering,"[3]; fructose-fed rats, 80 mg/kg twice daily",did not lower glucose levels
same,triglyceride lowering,"[3]; hypertriglyceridemic rat model, low doses of 10 and 20 mg/kg",triglyceride-lowering effects
same,lesions in the cecum,cecum,known to cause lesions in the cecum
same,glucose transport,"rat adipocytes; adipocytes, in vitro",directly stimulates glucose transport
same,isoproterenol-induced lipolysis,"rat adipocytes; rat adipocytes, in vitro (Gowri et al., 1999)",inhibition
same,plasma triglyceride lowering,ZDF rats,significantly and dramatically lowered plasma triglycerides
same,glucose lowering,ZDF rats; given orally,significantly lowers glucose
